Experimental data as given in ChEMBL document CHEMBL3396949, “Synthesis, biological evaluation and molecular docking study of novel piperidine and piperazine derivatives as multi-targeted agents to treat Alzheimer's disease” (Bioorg Med Chem, 2015).

Key:
[1] = biological target: Acetylcholinesterase (Electrophorus electricus, UniProt O42275); assay: Inhibition of electric eel AChE using acetylthiocholine iodide as substrate incubated for 5 mins by Ellman's method
[2] = biological target: Amyloid-beta precursor protein (Homo sapiens) (UniProt P05067); assay: Inhibition of self-mediated amyloid beta (1 to 42) (unknown origin) aggregation at 25 uM after 48 hrs by thioflavin T fluorescence assay relative to control
[3] = Selectivity ratio of IC50 for equine serum BChE to IC50 for electric eel AChE
[4] = biological target: Cholinesterase (Equus caballus, UniProt P81908); assay: Inhibition of equine serum BChE using butyrylthiocholine iodide as substrate incubated for 5 mins by Ellman's method
[5] = Antioxidant activity assessed as trolox equivalent of AAPH radical scavenging activity at 1 to 10 uM preincubated for 15 mins followed by AAPH challenge measured every min for 80 mins by ORAC-FL assay
[6] = biological target: Amyloid-beta precursor protein (Homo sapiens) (UniProt P05067); assay: Ratio of curcumin to compound for self-mediated amyloid beta (1 to 42) (unknown origin) aggregation at 25 uM after 48 hrs by thioflavin T fluorescence assay relative to control
[7] = biological target: Acetylcholinesterase (Electrophorus electricus) (UniProt O42275); assay: Ratio of donepezil IC50 to compound IC50 for electric eel AChE using acetylthiocholine iodide as substrate incubated for 5 mins by Ellman's method
Sequence of Acetylcholinesterase (Electrophorus electricus) (O42275 24-633 limits assumed): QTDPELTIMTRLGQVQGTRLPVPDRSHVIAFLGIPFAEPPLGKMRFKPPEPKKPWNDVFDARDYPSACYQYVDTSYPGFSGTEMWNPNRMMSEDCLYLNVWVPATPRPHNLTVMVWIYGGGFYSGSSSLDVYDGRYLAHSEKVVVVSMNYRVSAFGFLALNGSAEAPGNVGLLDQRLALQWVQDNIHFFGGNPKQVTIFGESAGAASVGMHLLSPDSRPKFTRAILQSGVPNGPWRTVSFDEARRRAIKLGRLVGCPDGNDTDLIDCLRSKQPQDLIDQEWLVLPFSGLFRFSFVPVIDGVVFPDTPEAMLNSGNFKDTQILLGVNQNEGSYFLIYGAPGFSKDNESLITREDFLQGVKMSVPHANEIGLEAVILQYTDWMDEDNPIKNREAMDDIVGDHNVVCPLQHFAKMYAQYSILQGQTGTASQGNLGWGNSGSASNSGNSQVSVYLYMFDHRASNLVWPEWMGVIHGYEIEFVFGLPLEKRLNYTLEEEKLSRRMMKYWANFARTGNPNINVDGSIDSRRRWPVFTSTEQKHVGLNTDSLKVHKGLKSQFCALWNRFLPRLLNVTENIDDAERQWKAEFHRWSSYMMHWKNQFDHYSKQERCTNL

Sequence of Acetylcholinesterase (O42275 whole entry): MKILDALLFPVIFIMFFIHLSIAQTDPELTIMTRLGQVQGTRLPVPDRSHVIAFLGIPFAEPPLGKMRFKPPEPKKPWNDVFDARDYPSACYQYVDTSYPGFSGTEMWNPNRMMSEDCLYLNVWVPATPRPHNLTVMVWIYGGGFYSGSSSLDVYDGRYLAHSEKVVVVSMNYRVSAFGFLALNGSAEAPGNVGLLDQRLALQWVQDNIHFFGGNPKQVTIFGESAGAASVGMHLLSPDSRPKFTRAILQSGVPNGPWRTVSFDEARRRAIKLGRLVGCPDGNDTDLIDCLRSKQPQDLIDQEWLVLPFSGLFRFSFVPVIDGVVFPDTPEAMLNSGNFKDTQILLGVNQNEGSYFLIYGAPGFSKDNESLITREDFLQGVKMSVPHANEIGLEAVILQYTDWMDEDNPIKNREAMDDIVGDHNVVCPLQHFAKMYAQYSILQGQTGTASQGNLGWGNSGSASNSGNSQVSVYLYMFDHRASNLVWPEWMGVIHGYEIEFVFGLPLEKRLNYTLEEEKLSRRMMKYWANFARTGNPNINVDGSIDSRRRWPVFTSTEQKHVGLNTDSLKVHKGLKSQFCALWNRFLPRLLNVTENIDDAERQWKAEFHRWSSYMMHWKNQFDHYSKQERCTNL
Sequence of Cholinesterase (P81908 whole entry): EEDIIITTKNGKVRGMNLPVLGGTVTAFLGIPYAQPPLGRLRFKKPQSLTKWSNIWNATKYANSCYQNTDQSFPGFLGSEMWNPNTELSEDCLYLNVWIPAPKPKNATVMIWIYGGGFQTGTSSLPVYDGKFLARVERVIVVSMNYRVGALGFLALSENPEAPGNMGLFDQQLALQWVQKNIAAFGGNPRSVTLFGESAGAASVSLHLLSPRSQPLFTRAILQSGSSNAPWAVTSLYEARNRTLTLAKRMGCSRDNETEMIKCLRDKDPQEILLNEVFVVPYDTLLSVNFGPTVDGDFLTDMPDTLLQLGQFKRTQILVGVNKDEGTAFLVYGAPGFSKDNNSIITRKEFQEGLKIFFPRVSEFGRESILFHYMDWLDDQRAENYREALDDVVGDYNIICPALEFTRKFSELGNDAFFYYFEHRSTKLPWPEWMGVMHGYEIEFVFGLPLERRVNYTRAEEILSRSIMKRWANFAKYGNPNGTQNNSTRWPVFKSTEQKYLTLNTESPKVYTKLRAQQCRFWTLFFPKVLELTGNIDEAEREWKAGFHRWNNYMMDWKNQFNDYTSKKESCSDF
Sequence of Amyloid-beta precursor protein (Homo sapiens) (P05067 whole entry): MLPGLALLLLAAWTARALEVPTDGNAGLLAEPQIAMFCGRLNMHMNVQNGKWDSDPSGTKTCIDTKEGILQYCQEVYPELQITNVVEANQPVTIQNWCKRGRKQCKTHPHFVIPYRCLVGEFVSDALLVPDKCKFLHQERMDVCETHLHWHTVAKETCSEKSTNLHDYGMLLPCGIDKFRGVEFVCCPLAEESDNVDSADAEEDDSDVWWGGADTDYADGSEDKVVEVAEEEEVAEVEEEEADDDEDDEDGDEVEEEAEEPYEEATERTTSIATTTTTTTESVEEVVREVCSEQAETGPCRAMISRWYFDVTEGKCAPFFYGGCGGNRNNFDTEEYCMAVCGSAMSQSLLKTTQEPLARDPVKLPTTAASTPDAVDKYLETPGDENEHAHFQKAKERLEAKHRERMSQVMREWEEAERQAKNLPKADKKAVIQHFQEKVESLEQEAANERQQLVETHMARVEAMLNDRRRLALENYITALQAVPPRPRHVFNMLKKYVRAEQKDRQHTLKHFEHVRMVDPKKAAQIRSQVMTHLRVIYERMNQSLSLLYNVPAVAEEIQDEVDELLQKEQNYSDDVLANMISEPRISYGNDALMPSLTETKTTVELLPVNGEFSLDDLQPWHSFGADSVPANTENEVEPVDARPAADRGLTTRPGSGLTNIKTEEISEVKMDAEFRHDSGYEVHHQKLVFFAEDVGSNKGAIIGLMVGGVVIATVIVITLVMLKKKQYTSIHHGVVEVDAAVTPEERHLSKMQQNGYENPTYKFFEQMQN

| Compound | IC50 [1] [nM] | inhibition [2] [%] | Ratio IC50 [3] | IC50 [4] [nM] | Activity [5] [equiv] | Ratio [6] | Ratio IC50 [7] |
| --- | --- | --- | --- | --- | --- | --- | --- |
| COc1ccc(CNCCCN2CCC(Cc3ccccc3)CC2)cc1OC | 75.3 | 84.4 | 2.52 | 190 | 1.22 | 1.51 | – |
| COc1cc(CNCCCN2CCC(Cc3ccccc3)CC2)ccc1O | 6.83 | 88 | 1.11 | 7.61 | 3.74 | 1.51 | 7 |
| COc1ccc(CNCCCN2CCN(C(c3ccccc3)c3ccccc3)CC2)cc1OC | – | 65.6 | – | – | 2.21 | – | – |
| COc1cc(CNCCN2CCN(C(c3ccccc3)c3ccccc3)CC2)cc(OC)c1OC | – | 68.7 | – | – | 2.38 | – | – |
| COc1cc(CNCCCCN2CCC(Cc3ccccc3)CC2)ccc1O | 11.5 | 71.3 | 0.33 | 3.87 | 4.45 | – | – |
| COc1cc(CNCCCCN2CCC(Cc3ccccc3)CC2)cc(OC)c1OC | 12.8 | 85.4 | 1.3 | 16.7 | 2.45 | 1.51 | – |
| COc1cc(CNCCCN2CCN(Cc3ccccc3)CC2)ccc1O | 13.5 | 67.2 | 1.38 | 18.8 | 1.99 | – | – |
| COc1ccc(CNCCCCN2CCN(Cc3ccccc3)CC2)cc1OC | 163 | 67.7 | 0.86 | 142 | 0.61 | – | – |
| c1ccc(CN2CCN(CCCCNCc3cccnc3)CC2)cc1 | 134 | 69.3 | 0.78 | 104 | 0.64 | – | – |
| COc1ccc(CNCCCN2CCN(Cc3ccccc3)CC2)cc1OC | 112 | 79.7 | 2.94 | 331 | 1.4 | 1.71 | – |
| COc1cc(CNCCN2CCN(C(c3ccccc3)c3ccccc3)CC2)ccc1O | – | 43.5 | – | – | 2.31 | – | – |
| COc1cc(CNCCCN2CCN(C(c3ccccc3)c3ccccc3)CC2)cc(OC)c1OC | – | 68.2 | – | – | 2.47 | – | – |
| c1ccc(CC2CCN(CCCCNCc3cccnc3)CC2)cc1 | 7.72 | 78.6 | 4.4 | 34 | 1.59 | 1.51 | 6 |
| COc1cc(CNCCN2CCC(Cc3ccccc3)CC2)cc(OC)c1OC | 35.8 | 75 | 1.48 | 53.4 | 1.38 | – | – |
| COc1cc(CNCCCCN2CCN(C(c3ccccc3)c3ccccc3)CC2)cc(OC)c1OC | – | 57.3 | – | – | 1.63 | – | – |
| COc1cc(CNCCCN2CCN(C(c3ccccc3)c3ccccc3)CC2)ccc1O | – | 54.2 | – | – | 2.68 | – | – |

| Compound | IC50 [1] [nM] | inhibition [2] [%] | Ratio IC50 [3] | IC50 [4] [nM] | Activity [5] [equiv] | Ratio [6] | Ratio IC50 [7] |
| --- | --- | --- | --- | --- | --- | --- | --- |
| COc1cc(CNCCN2CCN(Cc3ccccc3)CC2)cc(OC)c1OC | 96.5 | 75.5 | 0.77 | 75.1 | 2.77 | – | – |
| COc1ccc(CNCCN2CCN(C(c3ccccc3)c3ccccc3)CC2)cc1OC | – | 67.6 | – | – | 1.77 | – | – |
| COc1cc(CNCCCCN2CCN(Cc3ccccc3)CC2)ccc1O | 136 | 72.4 | 0.1 | 13.9 | 1.64 | – | – |
| c1ccc(CC2CCN(CCCNCc3cccnc3)CC2)cc1 | 2.13 | 88.8 | 38.4 | 81.7 | 1.18 | 1.51 | 22 |
| COc1cc(CNCCCCN2CCN(Cc3ccccc3)CC2)cc(OC)c1OC | 138 | 80.4 | 0.23 | 32.7 | 1.24 | 1.71 | – |
| COc1cc(CNCCCN2CCC(Cc3ccccc3)CC2)cc(OC)c1OC | 8.56 | 78.2 | 2.69 | 23.1 | 1.41 | 1.51 | – |
| c1ccc(CN2CCN(CCNCc3cccnc3)CC2)cc1 | 140 | 56.8 | 0.92 | 129 | 1.02 | – | – |
| COc1cc(CNCCCN2CCN(Cc3ccccc3)CC2)cc(OC)c1OC | 81.8 | 79.7 | 0.5 | 41.5 | 1.31 | 1.71 | – |
| COc1ccc(CNCCCCN2CCN(C(c3ccccc3)c3ccccc3)CC2)cc1OC | – | 57.8 | – | – | 1.35 | – | – |
| COc1ccc(CNCCN2CCC(Cc3ccccc3)CC2)cc1OC | 182 | 54.7 | 0.42 | 77.7 | 0.61 | – | – |
| c1ccc(CN2CCN(CCCNCc3cccnc3)CC2)cc1 | 23.1 | 63 | 9.03 | 209 | 0.65 | – | – |
| COc1ccc(CNCCN2CCN(Cc3ccccc3)CC2)cc1OC | 682 | 80.7 | 0.4 | 274 | 0.95 | 1.71 | – |
| COc1ccc(CNCCCCN2CCC(Cc3ccccc3)CC2)cc1OC | 202 | 80.7 | 0.24 | 49.1 | 1.06 | 1.51 | – |
| COc1cc(CNCCN2CCN(Cc3ccccc3)CC2)ccc1O | 181 | 71.9 | 0.1 | 18.3 | 1.28 | – | – |
| c1ccc(CC2CCN(CCNCc3cccnc3)CC2)cc1 | 32.8 | 84.4 | 3.07 | 101 | 1.32 | 1.51 | – |
| COc1cc(CNCCN2CCC(Cc3ccccc3)CC2)ccc1O | 38.3 | 84.4 | 0.1 | 4.2 | 4.04 | 1.51 | – |
